{"source": "patent US10508127B2", "about": "“Conjugated bisphosphonates for the diagnosis and therapy of bone diseases” (SCV GmbH, priority 2014, dated 2019)", "key": {"[1]": {"assay": "Ex vivo biodistribution (organ SUV) in healthy Wistar rats 60 min after tail vein injection", "details": "for Bone-to-organ ratio Blood / Bone-to-organ ratio Heart / Bone-to-organ ratio Intestine / Bone-to-organ ratio Kidneys / Bone-to-organ ratio Liver / Bone-to-organ ratio Lung / Bone-to-organ ratio Muscle / Bone-to-organ ratio Spleen: Wistar rats after 60 min; for SUV Blood / SUV Femur / SUV Heart / SUV Intestine / SUV Kidneys / SUV Liver / SUV Lung / SUV Muscle / SUV Spleen: Wistar rats, ex vivo, 60 min after injection, SUV (standard deviation) from five animals", "procedure": "Under isoflurane anesthesia, 15-18 MBq of the ^68Ga-marked compound or of the ^177Lu-marked compounds, diluted in isotonic saline solution, was applied into the tail vein of healthy Wistar rats (N=5) having a weight between 140 and 220 g. The rats were killed 60 min after injection, organ samples were removed and weighed, and the accumulation of the marked bisphosphonate in the tissue was determined in SUV (standardized uptake value) according to the formula: SUV=(activity per g of tissue)/(injected activity) x body weight."}, "[2]": {"assay": "In vivo μPET experiments, pharmacological parameters (2-Compartment Model)", "details": "Wistar rats"}, "bone metastases [3]": {"test_system": "bone metastases", "assay": "PET/CT uptake (SUV max) in a patient with prostate carcinoma and bone metastases", "type": "in vivo", "details": "same patient; DOTA^ZOL PET/CT day n, HBED-PSMA^CC PET/CT day n + 2"}, "bone metastases [4]": {"test_system": "bone metastases", "assay": "First therapeutic application / scintigraphy of [177Lu]DOTA^ZOL in a prostate carcinoma patient with disseminated bone metastases", "type": "in vivo", "procedure": "FIG. 5: Distribution of [^177Lu]DOTA^ZOL in a patient with disseminated bone metastases: [^177Lu]DOTA^ZOL scintigraphy on a patient with prostate carcinoma 6 hours after injection. In a first therapeutic applications [sic], within two months, the PSA value (which represents an important marker in monitoring the progress of the prostate carcinoma) could be lowered from 478 ng/mL initially to 88 ng/mL after only one treatment with 5.5 GBq [^177Lu]DOTA^ZOL. ^177Lu-DOTAM^ZOL may be used equivalently."}}, "note": "Marks after values point to notes of the source that are not given here."}
{"smiles": "O=C(O)CN1CCN(CC(=O)O)CCN(CC(=O)NCCC(O)(P(=O)(O)O)P(=O)(O)O)CCN(CC(=O)O)CC1.[68Ga+3]", "note": "[[^68Ga]DOTA^PAM]", "values": [{"measurement": "Bone-to-organ ratio Blood", "setting": "[1]", "value": 7.61}, {"measurement": "Bone-to-organ ratio Heart", "setting": "[1]", "value": 19.49}, {"measurement": "Bone-to-organ ratio Intestine", "setting": "[1]", "value": 16.11}, {"measurement": "Bone-to-organ ratio Kidneys", "setting": "[1]", "value": 9.44}, {"measurement": "Bone-to-organ ratio Liver", "setting": "[1]", "value": 10.02}, {"measurement": "Bone-to-organ ratio Lung", "setting": "[1]", "value": 8.61}, {"measurement": "Bone-to-organ ratio Muscle", "setting": "[1]", "value": 47.96}, {"measurement": "Bone-to-organ ratio Spleen", "setting": "[1]", "value": 14.51}, {"measurement": "SUV Blood", "setting": "[1]", "value": "0.60 (0.03) SUV"}, {"measurement": "SUV Femur", "setting": "[1]", "value": "4.53 (0.17) SUV"}, {"measurement": "SUV Heart", "setting": "[1]", "value": "0.23 (0.02) SUV"}, {"measurement": "SUV Intestine", "setting": "[1]", "value": "0.28 (0.12) SUV"}, {"measurement": "SUV Kidneys", "setting": "[1]", "value": "0.48 (0.06) SUV"}, {"measurement": "SUV Liver", "setting": "[1]", "value": "0.43 (0.04) SUV"}, {"measurement": "SUV Lung", "setting": "[1]", "value": "0.53 (0.16) SUV"}, {"measurement": "SUV Muscle", "setting": "[1]", "value": "0.09 (0.02) SUV"}, {"measurement": "SUV Spleen", "setting": "[1]", "value": "0.31 (0.04) SUV"}, {"measurement": "Elimination half-life t1/2(α)", "setting": "[2]", "value": 4.5, "unit": "min"}, {"measurement": "Elimination half-life t1/2(β)", "setting": "[2]", "value": 4.5, "unit": "h"}]}
{"smiles": "O=C(O)CN1CCN(CC(=O)O)CCN(CC(=O)NCCc2cn(CC(O)(P(=O)(O)O)P(=O)(O)O)cn2)CCN(CC(=O)O)CC1.[68Ga+3]", "note": "[[^68Ga]DOTA^ZOL]", "values": [{"measurement": "SUV max, bone lesion 8th right rear rib", "setting": "bone metastases [3]", "value": 7.99, "unit": "SUV max"}, {"measurement": "SUV max, bone lesion C4 vertebral body and hip pedicle", "setting": "bone metastases [3]", "value": 12.38, "unit": "SUV max"}, {"measurement": "SUV max, bone lesion L2 vertebral body", "setting": "bone metastases [3]", "value": 68.92, "unit": "SUV max"}, {"measurement": "SUV max, bone lesion L3 vertebral body", "setting": "bone metastases [3]", "value": 62.96, "unit": "SUV max"}, {"measurement": "SUV max, bone lesion L4 vertebral body", "setting": "bone metastases [3]", "value": 34.51, "unit": "SUV max"}, {"measurement": "SUV max, bone lesion L5 vertebral body", "setting": "bone metastases [3]", "value": 21.94, "unit": "SUV max"}, {"measurement": "SUV max, bone lesion Left bones, upper ischium, and pubic bone", "setting": "bone metastases [3]", "value": 62.32, "unit": "SUV max"}, {"measurement": "SUV max, bone lesion Right acetabulum", "setting": "bone metastases [3]", "value": 25.39, "unit": "SUV max"}, {"measurement": "SUV max, bone lesion Right ischium", "setting": "bone metastases [3]", "value": 32.55, "unit": "SUV max"}, {"measurement": "SUV max, bone lesion Sacrum", "setting": "bone metastases [3]", "value": 17.98, "unit": "SUV max"}, {"measurement": "SUV max, bone lesion T9 vertebral body", "setting": "bone metastases [3]", "value": 17.08, "unit": "SUV max"}, {"measurement": "SUV max, bone lesion T11 vertebral body", "setting": "bone metastases [3]", "value": 32.29, "unit": "SUV max"}, {"measurement": "SUV max, soft tissue Bladder", "setting": "bone metastases [3]", "value": 15.53, "unit": "SUV max"}, {"measurement": "SUV max, soft tissue Left kidney", "setting": "bone metastases [3]", "value": 4.12, "unit": "SUV max"}, {"measurement": "SUV max, soft tissue Left parotid gland", "setting": "bone metastases [3]", "value": 1.46, "unit": "SUV max"}, {"measurement": "SUV max, soft tissue Liver", "setting": "bone metastases [3]", "value": 2.85, "unit": "SUV max"}, {"measurement": "SUV max, soft tissue Right kidney", "setting": "bone metastases [3]", "value": 9.34, "unit": "SUV max"}, {"measurement": "SUV max, soft tissue Right parotid gland", "setting": "bone metastases [3]", "value": 1.22, "unit": "SUV max"}, {"measurement": "SUV max, soft tissue Spleen", "setting": "bone metastases [3]", "value": 4.50, "unit": "SUV max"}, {"measurement": "Bone-to-organ ratio Blood", "setting": "[1]", "value": 11.47}, {"measurement": "Bone-to-organ ratio Heart", "setting": "[1]", "value": 37.97}, {"measurement": "Bone-to-organ ratio Intestine", "setting": "[1]", "value": 38.67}, {"measurement": "Bone-to-organ ratio Kidneys", "setting": "[1]", "value": 10.22}, {"measurement": "Bone-to-organ ratio Liver", "setting": "[1]", "value": 19.21}, {"measurement": "Bone-to-organ ratio Lung", "setting": "[1]", "value": 12.06}, {"measurement": "Bone-to-organ ratio Muscle", "setting": "[1]", "value": 65.96}, {"measurement": "Bone-to-organ ratio Spleen", "setting": "[1]", "value": 31.71}, {"measurement": "SUV Blood", "setting": "[1]", "value": "0.47 (0.19)^† SUV"}, {"measurement": "SUV Femur", "setting": "[1]", "value": "5.40 (0.62)^†‡ SUV"}, {"measurement": "SUV Heart", "setting": "[1]", "value": "0.14 (0.04)^†‡ SUV"}, {"measurement": "SUV Intestine", "setting": "[1]", "value": "0.14 (0.08)^ SUV"}, {"measurement": "SUV Kidneys", "setting": "[1]", "value": "0.53 (0.04)^ SUV"}, {"measurement": "SUV Liver", "setting": "[1]", "value": "0.28 (0.03)^‡ SUV"}, {"measurement": "SUV Lung", "setting": "[1]", "value": "0.45 (0.11)^ SUV"}, {"measurement": "SUV Muscle", "setting": "[1]", "value": "0.08 (0.02)^† SUV"}, {"measurement": "SUV Spleen", "setting": "[1]", "value": "0.17 (0.02)^‡ SUV"}, {"measurement": "Elimination half-life t1/2(α)", "setting": "[2]", "value": 5, "unit": "min"}, {"measurement": "Elimination half-life t1/2(β)", "setting": "[2]", "value": 2.3, "unit": "h"}]}
{"smiles": "O=C(O)CN1CCN(CC(=O)O)CCN(CC(=O)NCCC(P(=O)(O)O)P(=O)(O)O)CCN(CC(=O)O)CC1.[68Ga+3]", "note": "[[^68Ga]BPAPD]", "values": [{"measurement": "Bone-to-organ ratio Blood", "setting": "[1]", "value": 3.73}, {"measurement": "Bone-to-organ ratio Heart", "setting": "[1]", "value": 10.03}, {"measurement": "Bone-to-organ ratio Intestine", "setting": "[1]", "value": 12.35}, {"measurement": "Bone-to-organ ratio Kidneys", "setting": "[1]", "value": 5.73}, {"measurement": "Bone-to-organ ratio Liver", "setting": "[1]", "value": 8.68}, {"measurement": "Bone-to-organ ratio Lung", "setting": "[1]", "value": 7.47}, {"measurement": "Bone-to-organ ratio Muscle", "setting": "[1]", "value": 18.88}, {"measurement": "Bone-to-organ ratio Spleen", "setting": "[1]", "value": 13.96}, {"measurement": "SUV Blood", "setting": "[1]", "value": "0.86 (0.21) SUV"}, {"measurement": "SUV Femur", "setting": "[1]", "value": "3.21 (0.29) SUV"}, {"measurement": "SUV Heart", "setting": "[1]", "value": "0.32 (0.09) SUV"}, {"measurement": "SUV Intestine", "setting": "[1]", "value": "0.26 (0.05) SUV"}, {"measurement": "SUV Kidneys", "setting": "[1]", "value": "0.56 (0.08) SUV"}, {"measurement": "SUV Liver", "setting": "[1]", "value": "0.37 (0.11) SUV"}, {"measurement": "SUV Lung", "setting": "[1]", "value": "0.43 (0.08) SUV"}, {"measurement": "SUV Muscle", "setting": "[1]", "value": "0.17 (0.02) SUV"}, {"measurement": "SUV Spleen", "setting": "[1]", "value": "0.23 (0.08) SUV"}, {"measurement": "Elimination half-life t1/2(α)", "setting": "[2]", "value": 5, "unit": "min"}, {"measurement": "Elimination half-life t1/2(β)", "setting": "[2]", "value": 4, "unit": "h"}]}
{"smiles": "O=C(O)CN1CCN(CC(=O)O)CCN(CC(=O)NCCc2cn(CC(O)(P(=O)(O)O)P(=O)(O)O)cn2)CCN(CC(=O)O)CC1.[177Lu+3]", "note": "[[^177Lu]DOTA^ZOL]", "values": [{"measurement": "Selectivity of distribution", "setting": "bone metastases [4]; first clinical studies, FIG. 5 scintigraphy 6 hours after injection", "value": "high selectivity"}, {"measurement": "PSA value after treatment", "setting": "bone metastases [4]; prostate carcinoma patient, within two months after only one treatment with 5.5 GBq, initially 478 ng/mL", "value": 88, "unit": "ng/mL"}]}
